# Experimental data from patent publication US20250059231A1, “Protease inhibitors” (priority 2021, published 2025).
# pIC50: −log10 of the molar value. Where two headings read alike, the source gives them in different places. Where a SMILES comes first, the peptide text is derived from it. [ ]: non-standard residue; d: D form. The star is where a group is joined. Arachidoyl = CCCCCCCCCCCCCCCCCCCC(=O)*; Palmitoyl = CCCCCCCCCCCCCCCC(=O)*; hPhe = N[C@@H](CCc1ccccc1)C(=O)O; Phg = N[C@H](C(=O)O)c1ccccc1; β3hK = NCCCC[C@H](N)CC(=O)O; Pip = O=C(O)[C@@H]1CCCCN1
# Key:
# [1] = target: T1, DENV protease (Dengue virus type 2, UniProt P29990); assay: biochemical; settings: read-out: inhibition of DENV
# T1 construct: The virus-encoded dengue protease comprises the amino-terminal 180 amino acids of NS3 (NS3pro) of the polyprotein
# T1 sequence (P29990 1398-1437): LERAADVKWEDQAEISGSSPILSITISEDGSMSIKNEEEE
# T1 sequence (P29990 1476-1653): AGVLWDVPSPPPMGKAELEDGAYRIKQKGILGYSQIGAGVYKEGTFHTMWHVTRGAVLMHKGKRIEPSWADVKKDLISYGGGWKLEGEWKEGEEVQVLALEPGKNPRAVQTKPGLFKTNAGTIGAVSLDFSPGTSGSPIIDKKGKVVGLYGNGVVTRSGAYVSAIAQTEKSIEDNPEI
# Summary of the method: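 DENV protease (100 nM) was pre-incubated 15 min with inhibitors in 50 mM Tris-HCl pH 9.0, 10% ethylene glycol, 0.0016% Brij 58. FRET substrate (50 μM final) started the reaction, monitored 15 min as RFU/s slope. IC50 came from triplicate means versus concentration.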
# [2] = target: T2, WNV protease (West Nile virus, UniProt P06935); assay: WNV protease assay (analogous procedure); format: biochemical
# T2 construct: a trypsin-like serine protease domain in the N-terminal region of the flaviviral NS3 proteins
# T2 sequence (P06935 1424-1463): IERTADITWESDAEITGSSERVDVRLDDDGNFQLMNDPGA
# T2 sequence (P06935 1502-1679): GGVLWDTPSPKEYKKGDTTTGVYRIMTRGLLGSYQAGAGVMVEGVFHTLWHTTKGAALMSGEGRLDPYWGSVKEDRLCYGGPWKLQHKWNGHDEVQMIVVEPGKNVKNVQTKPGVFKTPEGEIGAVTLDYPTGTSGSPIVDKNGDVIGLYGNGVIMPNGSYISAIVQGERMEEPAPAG
# Protocol: (§1) By catalytic activity of the protease, the cleaved substrate results in increased fluorescence that can be monitored using a BMG Labtech Fluostar OPTIMA Microtiter fluorescence plate reader (excitation wavelength of 320 nm and a monitored emission wavelength of 405 nm). Dilutions were made starting from 10 mM stock solutions in DMSO and final concentrations were measured in triplicates. The inhibitors were preincubated for 15 min with DENV protease (100 nM) in the assay buffer (50 mM Tris-HCl pH 9.0, ethylene glycol (10% v/v), and 0.0016% Brij 58). The enzymatic reaction was initiated by the addition of the FRET substrate (final concentration 50 μM) to obtain a final assay volume of 100 μL per well. The enzymatic activity was monitored for 15 min and determined as a slope of relative fluorescence units per second (RFU/s) for each concentration. The mean of the triplicates were plotted against the corresponding concentration in CDDVault to determine the IC50-values. Analogous procedures were used to determine the inhibitory potency on WNV (Kühl et al., J. Med. Chem. 2020, 63 (15): 8179-8197) and ZIKA protease (Nitsche et al., ACS Med. Chem. Lett. 2019 Feb. 14; 10 (2): 168-174). For selectivity screening of active candidates, similar biochemical assays with human serine proteases trypsin (Weigel et al., J. Med. Chem. 2015, 58 (19), 7719-7733.) and/or thrombin (Nitsche et al., J. Med. Chem. 2013, 56 (21), 8389-8403) were used.
# [3] = target: T3, ZIKA protease (Zika virus, UniProt Q32ZE1); assay: biochemical; settings: for inhibition at 1 µM / inhibition at 50 µM: read-out: inhibition of ZIKV
# T3 construct: a trypsin-like serine protease domain in the N-terminal region of the flaviviral NS3 proteins
# T3 sequence (Q32ZE1 1499-1676): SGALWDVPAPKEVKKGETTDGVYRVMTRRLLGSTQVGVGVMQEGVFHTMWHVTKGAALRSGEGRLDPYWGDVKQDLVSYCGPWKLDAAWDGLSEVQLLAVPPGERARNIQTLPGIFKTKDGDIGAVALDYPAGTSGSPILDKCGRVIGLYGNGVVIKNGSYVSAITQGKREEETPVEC
# T3 sequence (Q32ZE1 1421-1460): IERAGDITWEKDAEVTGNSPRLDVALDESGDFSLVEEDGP
# Protocol: as §1
# [4] = target: human Thrombin (Homo sapiens, UniProt P00734); assay: Selectivity screening, human serine protease thrombin; format: biochemical; settings: read-out: inhibition of human Thrombin
# Protocol: as §1
# [5] = target: human Trypsin (Homo sapiens, UniProt P07477); assay: Selectivity screening, human serine protease trypsin; format: biochemical; settings: read-out: inhibition of human Trypsin
# Protocol: as §1
# [6] = target: T2, WNV protease; assay: WNV protease assay (analogous procedure); format: biochemical; settings: read-out: IC50 for WNNV
Compound,inhibition at 1 µM [1] [%],inhibition at 50 µM [1] [%],inhibition at 50 µM [2] [%],pIC50 [3],inhibition at 1 µM [3] [%],inhibition at 50 µM ([3]; at 50 μM) [%],inhibition at 5 µM ([4]; at 5 μM) [%],inhibition at 5 µM ([5]; at 5 μM) [%],inhibition at 25 µM ([5]; at 25 μM) [%],pIC50 [6],inhibition at 50 µM [3] [%],inhibition at 5 µM [4] [%],inhibition at 5 µM [5] [%],inhibition at 25 µM [5] [%],"inhibition at 1 µM ([2]; at 1 μM, read-out: inhibition of WNNV) [%]"
CCCCCCCCCCCCCCCCCCCC(=O)N[C@@H](CCCCN)C(=O)N1CCC[C@H]1C(=O)N[C@@H](C)C(=O)N[C@@H](CCCCN)C(N)=O [compound 125] (Arachidoyl-KPAK-NH2),≥ 20,≥ 25,≥ 25,≥ 4.60,≥ 10,≥ 65,< 5,< 10,< 20,≥ 4.40,–,–,–,–,–
CCCCCCCCCCCCCCCC(=O)N[C@@H](CCCCN)C(=O)N[C@@H](C)C(=O)N[C@@H](C)C(=O)N[C@H](Cc1c[nH]cn1)C(N)=O [compound 171] (Palmitoyl-KAA[dH]-NH2),–,≥ 25,≥ 25,≥ 4.60,–,≥ 65,< 5,< 10,< 20,≥ 4.40,–,–,–,–,–
CCCCCCCCCCCCCCCC(=O)N[C@H](CCCCN)C(=O)N[C@@H](C)C(=O)N[C@@H](C)C(=O)N[C@@H](CCCCN)C(N)=O [compound 115] (Palmitoyl-[dK]AAK-NH2),–,≥ 25,≥ 25,≥ 4.60,≥ 10,≥ 65,< 5,< 10,< 20,≥ 4.40,–,–,–,–,–
CCCCCCCCCCCCCCCC(=O)N[C@@H](CCCCN)C(=O)N[C@@H](C)C(=O)N[C@@H](C)C(=O)N[C@@H](Cc1c[nH]c2ccccc12)C(N)=O [compound 92] (Palmitoyl-KAAW-NH2),–,≥ 25,≥ 25,≥ 4.60,≥ 10,≥ 65,< 5,< 10,< 20,≥ 4.40,–,–,–,–,–
CCCCCCCCCCCCCCCC(=O)N[C@@H](CCCCN)C(=O)N[C@@H](C)C(=O)N[C@@H](C)C(=O)N[C@H](CCc1ccccc1)C(=O)C(N)=O [compound 5],–,≥ 25,≥ 25,≥ 4.60,–,–,–,–,–,≥ 4.40,≥ 65,< 5,< 10,< 20,–
CCCCCCCCCCCCCCCC(=O)N[C@@H](CCCCN)C(=O)N[C@@H](C)C(=O)N[C@@H](CCCCN)C(=O)c1ccccc1 [compound 174],–,≥ 25,≥ 25,–,–,–,–,–,–,≥ 4.40,–,< 5,< 10,< 20,–
CCCCCCCCCCCCCCCCCCCC(=O)N[C@@H](CCCCN)C(=O)N[C@@H](C)C(=O)N[C@@H](C)C(=O)N[C@H](CCCCN)C(N)=O [compound 132] (Arachidoyl-KAA[dK]-NH2),≥ 20,≥ 25,≥ 25,–,–,–,< 5,–,< 20,≥ 4.40,–,–,–,–,≥ 10
CCCCCCCCCCCCCCCC(=O)N[C@@H](CCCCN)C(=O)N1CCC[C@H]1C(=O)N[C@@H](C)C(=O)N[C@H](Cc1ccccc1)C(N)=O [compound 123] (Palmitoyl-KPA[dF]-NH2),–,≥ 25,≥ 25,≥ 4.60,≥ 10,≥ 65,< 5,< 10,< 20,≥ 4.40,–,–,–,–,–
CCCCCCCCCCCCCCCC(=O)N[C@@H](CCCCN)CN1CCC[C@H]1C(=O)N[C@@H](C)C(=O)N[C@H](Cc1c[nH]c2ccccc12)C(N)=O [compound 122],–,≥ 25,≥ 25,≥ 4.60,–,≥ 65,< 5,< 10,< 20,≥ 4.40,–,–,–,–,–
CCCCCCCCCCCCCCCC(=O)N[C@@H](CCCCN)CC(=O)N1CCC[C@H]1C(=O)N[C@@H](C)C(=O)N[C@@H](CCc1ccccc1)C(N)=O [compound 117] (Palmitoyl-[β3hK]PA[hPhe]-NH2),–,≥ 25,≥ 25,≥ 4.60,≥ 10,≥ 65,< 5,< 10,< 20,≥ 4.40,–,–,–,–,–
CCCCCCCCCCCCCCCC(=O)N[C@@H](CCCCN)C(=O)N[C@@H](C)C(=O)N[C@@H](C)C(=O)N[C@@H](C=O)CCCCN [compound 181] (Palmitoyl-KAA[dK]-aldehyde),–,≥ 25,≥ 25,–,–,–,< 5,–,< 20,≥ 4.40,–,–,–,–,–
CCCCCCCCCCCCCCCC(=O)N[C@@H](CCCCN)C(=O)N[C@@H](C)C(=O)N[C@@H](C)C(=O)N[C@@H](Cc1ccccc1)C(N)=O [compound 17] (Palmitoyl-KAAF-NH2),–,≥ 25,≥ 25,–,–,–,< 5,< 10,< 20,≥ 4.40,–,–,–,–,–
CCCCCCCCCCCCCCCC(=O)N[C@H](CCCCN)C(=O)N[C@@H](C)C(=O)N[C@@H](Cc1ccccc1)C(N)=O [compound 190] (Palmitoyl-[dK]-Ala-Phe-NH2),–,≥ 25,≥ 25,–,–,–,< 5,< 10,< 20,≥ 4.40,–,–,–,–,–
CCCCCCCCCCCCCCCC(=O)N[C@@H](CCCCN)C(=O)N[C@@H](C)C(=O)N[C@@H](C)C(=O)N[C@@H](CCc1ccccc1)C(N)=O [compound 90] (Palmitoyl-KAA[hPhe]-NH2),–,≥ 25,≥ 25,–,–,–,< 5,< 10,< 20,≥ 4.40,–,–,–,–,–
CCCCCCCCCCCCCCCC(=O)N[C@@H](CCCCN)C(=O)N1CCCC[C@H]1C(=O)N[C@H](C(=O)N[C@@H](CCCCN)C(N)=O)c1ccccc1 [compound 16] (Palmitoyl-K[Pip][Phg]K-NH2),–,≥ 25,≥ 25,–,–,–,< 5,< 10,< 20,≥ 4.40,–,–,–,–,–
